Test [1] deals with BM3 protein (Priestia megaterium, UniProt P14779). Description: biochemical.
From the text: In another example, a spectroscopic assay based on analyte-induced absorbance shifts was employed to estimate binding affinities and ligand selectivity of the mutant proteins in the above Examples. […] This method allowed both an estimation of an analyte's dissociation constant and a determination of selectivity.
Test [2] has as its system PC12 cells.
Method: PC12 cells were grown in suspension in F-12K medium supplemented with 15% horse serum and 2.5% fetal bovine serum (ATCC, Manassas, Va.). In preparation for DA release experiments, 50 mL cell cultures were incubated for one hour in medium supplemented with 1 mM DA and 1 mM ascorbic acid, pelleted and washed twice with Locke's buffer (154 mM NaCl, 5.6 mM KCl, 3.6 mM NaHCO3, 2.3 mM CaCl2, 5.6 mM D-glucose, and 5 mM HEPES, pH 7.4). Washed PC12 cell pellets were resuspended in 200 microliters of Locke's buffer, with or without 32 micromolar BM3h-B7 sensor and containing either 5.6 or 59.6 mM K^+ (the low K^+ condition was osmotically balanced with Na^+). After 30-60 minutes incubation at room temperature, cells were pelleted and the supernatant was imaged in an MRI scanner as described above.
Test [3] can be described thus: T1 relaxivity / T1-weighted images in the presence of melatonin. Format: biochemical. Particulars: Example 3, FIGS. 8-9.
The nature of test [4]: T1 relaxivity by MRI in the presence of dopamine. Particulars: Example 3, FIGS. 8-9.
From the text: To determine the extent of that the interaction between exchanging water molecules at the axial site and the heme iron atom promotes T1 relaxation in aqueous solutions, a spin echo MRI pulse sequence was used to measure the proton relaxation rate as a function of protein concentration in phosphate buffered saline solution (PBS); the slope of this relationship (T1 relaxivity, or r1) provided a standard measure of the strength of a contrast agent.
Samples (60-100 microliters) were arrayed into microtiter plates and placed in a 40-cm-bore Bruker (Billerica, Mass.) Avance 4.7 T MRI scanner, equipped with a 10 cm inner diameter birdcage resonator radiofrequency coil and 26 G/cm triple axis gradients. Unused wells of the microtiter plates were filled with phosphate buffered saline, and imaging was performed on a 2-mm slice through the sample. A T1-weighted spin echo pulse sequence was used; echo time (TE) was 10 ms, and repetition times (TR) ranged from 77 ms to 5 s. Data matrices of 512×128 points were acquired and zero-filled to 1024×512 points, where the second dimension corresponds to the phase encoding direction. Images were reconstructed and analyzed using custom routines running in Matlab. Relaxation rates and relaxivities reported here were calculated by exponential fitting to the image data.

`NCCc1c[nH]c2ccc(O)cc12` [serotonin]: the Kd in test [1] was approximately 1 mM.

Consider `NCCc1ccc(O)c(O)c1` [dopamine], for which, in test [1], the Kd is approximately 1 mM. Further, in test [2] (K+-stimulated PC12 cells), the “DA concentration by ELISA, stimulated cells” value stood at 54 ± 9 µM. Further, the “DA concentration by ELISA, control cells” value in test [2] (Na+ control PC12 cells) turned out to be 13 ± 2 µM.

B1: wild type BM3: wild type cytochrome P450-BM3 from Bacillus megaterium, provided by Frances Arnold's laboratory (protein, UniProt P14779 1-1049, looked up)
Bifunctional cytochrome …: MTIKEMPQPKTFGELKNLPLLNTDKPVQALMKIADELGEIFKFEAPGRVTRYLSSQRLIKEACDESRFDKNLSQALKFVRDFAGDGLFTSWTHEKNWKKAHNILLPSFSQQAMKGYHAMMVDIAVQLVQKWERLNADEHIEVPEDMTRLTLDTIGLCGFNYRFNSFYRDQPHPFITSMVRALDEAMNKLQRANPDDPAYDENKRQFQEDIKVMNDLVDKIIADRKASGEQSDDLLTHMLNGKDPETGEPLDDENIRYQIITFLIAGHETTSGLLSFALYFLVKNPHVLQKAAEEAARVLVDPVPSYKQVKQLKYVGMVLNEALRLWPTAPAFSLYAKEDTVLGGEYPLEKGDELMVLIPQLHRDKTIWGDDVEEFRPERFENPSAIPQHAFKPFGNGQRACIGQQFALHEATLVLGMMLKHFDFEDHTNYELDIKETLTLKPEGFVVKAKSKKIPLGGIPSPSTEQSAKKVRKKAENAHNTPLLVLYGSNMGTAEGTARDLADIAMSKGFAPQVATLDSHAGNLPREGAVLIVTASYNGHPPDNAKQFVDWLDQASADEVKGVRYSVFGCGDKNWATTYQKVPAFIDETLAAKGAENIADRGEADASDDFEGTYEEWREHMWSDVAAYFNLDIENSEDNKSTLSLQFVDSAADMPLAKMHGAFSTNVVASKELQQPGSARSTRHLEIELPKEASYQEGDHLGVIPRNYEGIVNRVTARFGLDASQQIRLEAEEEKLAHLPLAKTVSVEELLQYVELQDPVTRTQLRAMAAKTVCPPHKVELEALLEKQAYKEQVLAKRLTMLELLEKYPACEMKFSEFIALLPSIRPRYYSISSSPRVDEKQASITVSVVSGEAWSGYGEYKGIASNYLAELQEGDTITCFISTPQSEFTLPKDPETPLIMVGPGTGVAPFRGFVQARKQLKEQGQSLGEAHLYFGCRSPHEDYLYQEELENAQSEGIITLHTAFSRMPNQPKTYVQHVMEQDGKKLIELLDQGAHFYICGDGSQMAPAVEATLMKSYADVHQVSEADARLWLQQLEEKGRYAKDVWAG
B1: in test [3], the “T1 relaxivity response to melatonin” value is “minimal response”. For the same molecule, the “relative T1 relaxivity response to DA versus 5-HT” value in test [4] is “greater response to DA”.
